Measurements published in patent US9260429B2, “Pyrido[3,4-B]indoles and methods of use” (Medivation Technologies, Inc., priority 2008, dated 2016).
Read-outs that look alike come from different tables or passages of the source.

Legend:
[1] = biological target: T1, human recombinant histamine H2 receptor (Homo sapiens, UniProt P25021); assay: Histamine H2 radioligand binding ([125I]Aminopotentidine)
T1 construct: expressed in transfected cells; host or cells: CHO-K1 cells
Outline: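 Membranes of CHO-K1 cells expressing human H2 receptor incubated with 0.1 nM [125I]aminopotentidine, 120 min, 25 °C, 50 mM phosphate pH 7.4; nonspecific binding defined with 3 μM tiotidine.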

[2] = biological target: T2, human recombinant adrenergic α2A receptor (Homo sapiens, UniProt P08913); assay: Adrenergic α2A radioligand binding ([3H]MK-912)
T2 construct: expressed in transfected cells; host or cells: insect Sf9 cells
T2 sequence (P08913 1-465): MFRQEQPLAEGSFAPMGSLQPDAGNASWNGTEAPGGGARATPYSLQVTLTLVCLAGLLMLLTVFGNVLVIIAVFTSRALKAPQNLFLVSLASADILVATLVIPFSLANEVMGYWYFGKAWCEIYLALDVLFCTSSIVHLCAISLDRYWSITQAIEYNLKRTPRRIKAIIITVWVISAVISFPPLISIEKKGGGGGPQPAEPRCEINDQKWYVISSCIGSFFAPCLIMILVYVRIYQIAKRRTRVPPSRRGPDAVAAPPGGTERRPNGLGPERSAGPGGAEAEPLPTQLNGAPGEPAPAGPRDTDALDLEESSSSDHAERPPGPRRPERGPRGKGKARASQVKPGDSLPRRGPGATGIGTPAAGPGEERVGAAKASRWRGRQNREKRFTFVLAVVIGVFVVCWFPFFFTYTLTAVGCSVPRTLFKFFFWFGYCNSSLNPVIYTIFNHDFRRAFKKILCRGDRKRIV
Procedure: To evaluate in radioligand binding assays the activity of compounds of the invention, human recombinant adrenergic α2A receptor expressed in insect Sf9 cells (Uhlen S et al. J Pharmacol Exp Ther. 271:1558, 1994) in a modified Tris-HCl buffer (50 mM Tris-HCl, pH 7.4, 12.5 mM MgCl2, 2 mM EDTA) was used. Compounds of invention were incubated with 1 nM [^3H]MK-912 for 60 minutes at 25° C. MK912 is (2S-trans)-1,3,4,5′,6,6′,7,12b-octahydro-1′,3′-dimethyl-spiro[2H-benzofuro[2,3-a]quinolizine-2,4′(1′H)-pyrimidin]-2′(3′H)-one hydrochloride Non-specific binding was estimated in the presence of 10 μM WB-4101 (2-(2,6-Dimethoxyphenoxyethyl)aminomethyl-1,4-benzodioxane hydrochloride). Receptor proteins were filtered and washed, the filters were then counted to determine [^3H]MK-912 specifically bound. Compounds were screened at 1 μM or lower, using 1% DMSO as vehicle. Biochemical assay results are presented as the percent inhibition of specific binding in Table 4.

[3] = biological target: T3, human recombinant adrenergic α2B receptor (Homo sapiens, UniProt P18089); assay: Adrenergic α2B radioligand binding ([3H]Rauwolscine)
T3 construct: expressed in transfected cells; host or cells: CHO-K1 cells
T3 sequence (P18089 1-450): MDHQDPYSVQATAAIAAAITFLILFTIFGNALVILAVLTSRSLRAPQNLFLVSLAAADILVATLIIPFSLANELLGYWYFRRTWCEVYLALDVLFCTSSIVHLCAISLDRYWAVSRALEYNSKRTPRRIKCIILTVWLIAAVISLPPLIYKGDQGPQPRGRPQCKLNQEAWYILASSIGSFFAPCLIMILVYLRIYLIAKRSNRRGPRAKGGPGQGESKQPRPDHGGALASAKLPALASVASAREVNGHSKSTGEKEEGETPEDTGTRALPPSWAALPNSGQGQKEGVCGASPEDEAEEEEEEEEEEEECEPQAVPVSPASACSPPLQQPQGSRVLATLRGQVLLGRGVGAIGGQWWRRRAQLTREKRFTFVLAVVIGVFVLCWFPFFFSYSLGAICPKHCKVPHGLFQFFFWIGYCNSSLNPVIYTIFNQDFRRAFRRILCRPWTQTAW
Procedure: To evaluate in radioligand binding assays the activity of compounds of the invention, human recombinant adrenergic α2B receptor expressed in Chinese hamster ovary (CHO-K1) cells (Uhlen S et al. Eur J. Pharmacol. 343(1):93, 1998) in a modified Tris-HCl buffer (50 mM Tris-HCl, pH 7.4, 12.5 mM MgCl2, 1 mM EDTA, 0.2% BSA) was used. Compounds of the invention were incubated with 2.5 nM [^3H]Rauwolscine for 60 minutes at 25° C. Non-specific binding was estimated in the presence of 10 μM Prozosin. Receptor proteins were filtered and washed, the filters were then counted to determine [^3H]Rauwolscine specifically bound. Compounds were screened at 1 μM or lower, using 1% DMSO as vehicle. Biochemical assay results are presented as the percent inhibition of specific binding in Table 4.

[4] = biological target: T4, human recombinant serotonin (5-Hydroxytryptamine) 5-HT2A receptor (Homo sapiens, UniProt P28223); assay: Serotonin 5-HT2A radioligand binding ([3H]Ketanserin); conditions: for inhibition at 0.01 µM: compound concentration 10 nM; for inhibition at 0.03 µM: compound concentration 0.03 μM; for inhibition at 0.1 µM: compound concentration 0.1 μM; for inhibition at 0.3 µM: compound concentration 0.3 μM
T4 construct: expressed in transfected cells; host or cells: CHO-K1 cells
Outline: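 Membranes from CHO-K1 cells expressing the receptor, in 50 mM Tris-HCl pH 7.4, incubated 60 min at 25° C with 0.5 nM [3H]Ketanserin; 1 μM Mianserin defines non-specific binding. Filtration and counting; values are % inhibition of specific binding at 1 μM or lower, 1% DMSO.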

[5] = 1 μM, inhibition of specific [125I]Aminopotentidine binding, read-out: Binding data (Percentage Inhibition) Histamine Binding (1 μM) H2
[6] = compound concentration 1 μM, read-out: Percentage inhibition of ligand binding to H2 receptor
[7] = 1 h, read-out: Percent Inhibition of ligand binding Adrenergic (1 μM ligand conc.) α2A
[8] = compound concentration 1 μM, read-out: Percentage inhibition of ligand binding to Adrenergic α2A receptor
[9] = 1 h, read-out: Percent Inhibition of ligand binding Adrenergic (1 μM ligand conc.) α2B
[10] = compound concentration 1 μM, read-out: Percentage inhibition of ligand binding to Adrenergic α2B receptor
[11] = 1 h, read-out: Percent Inhibition of ligand binding Serotonin (1 μM ligand concentration) 5-HT2A
[12] = read-out: Percentage inhibition of ligand binding to 5-HT2A receptor
[13] = compound concentration 1 μM, read-out: Percentage inhibition of ligand binding to 5-HT2A receptor

T1 sequence (P25021 whole entry): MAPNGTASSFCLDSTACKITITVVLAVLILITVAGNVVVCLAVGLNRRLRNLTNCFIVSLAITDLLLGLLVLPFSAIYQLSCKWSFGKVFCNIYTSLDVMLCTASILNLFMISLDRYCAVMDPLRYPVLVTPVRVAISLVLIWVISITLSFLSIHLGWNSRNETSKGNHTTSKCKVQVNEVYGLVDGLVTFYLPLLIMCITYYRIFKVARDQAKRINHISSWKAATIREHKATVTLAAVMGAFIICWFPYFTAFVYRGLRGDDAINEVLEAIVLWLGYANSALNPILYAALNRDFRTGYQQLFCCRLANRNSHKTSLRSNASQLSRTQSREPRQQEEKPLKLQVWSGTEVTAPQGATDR
T4 sequence (P28223 whole entry): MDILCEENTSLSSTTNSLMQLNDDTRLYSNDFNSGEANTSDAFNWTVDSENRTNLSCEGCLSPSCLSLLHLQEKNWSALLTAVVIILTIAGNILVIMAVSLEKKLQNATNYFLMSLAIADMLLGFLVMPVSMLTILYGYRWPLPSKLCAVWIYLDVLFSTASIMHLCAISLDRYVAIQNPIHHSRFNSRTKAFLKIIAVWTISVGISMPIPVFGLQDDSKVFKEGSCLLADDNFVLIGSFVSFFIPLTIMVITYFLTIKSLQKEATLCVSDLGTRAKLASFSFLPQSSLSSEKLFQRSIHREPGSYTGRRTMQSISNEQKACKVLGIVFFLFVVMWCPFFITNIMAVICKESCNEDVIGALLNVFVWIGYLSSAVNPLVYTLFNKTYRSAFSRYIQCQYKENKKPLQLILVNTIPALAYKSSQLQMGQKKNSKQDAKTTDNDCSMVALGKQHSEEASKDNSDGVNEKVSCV

Row | Compound | inhibition at 1 µM [1, 5] [%] | inhibition at 1 µM [1, 6] [%] | inhibition at 1 µM [2, 7] [%] | inhibition at 1 µM [2, 8] [%] | inhibition at 1 µM [3, 9] [%] | inhibition at 1 µM [3, 10] [%] | inhibition at 1 µM [4, 11] [%] | inhibition at 0.003 µM ([4]; compound concentration 3 nM, read-out: Percentage inhibition of ligand binding to 5-HT2A receptor) [%] | inhibition at 0.01 µM [4, 12] [%] | inhibition at 0.03 µM [4, 12] [%] | inhibition at 0.1 µM [4, 12] [%] | inhibition at 0.3 µM [4, 12] [%] | inhibition at 1 µM [4, 13] [%]
1 | C/C(=C\n1c2c(c3cc(C)ccc31)CCN(C)C2)c1ccc(F)cc1 [Compound 91, (E)-9-(2-(4-fluorophenyl)prop-1-enyl)-2,6-dimethyl-2,3,4,9-tetrahydro-1H-pyrido[3,4-b]indole] | 68 | 68 | 95 | 95 | 94 | 94 | 97 | 2 | 21 | 54 | 79 | 92 | 97
2 | Cc1ccc2c(c1)c1c(n2/C=C/c2ccccc2)CN(C)CC1 [Compound 92] | 50 | 50 | 96 | 96 | 104 | 104 | 97 |  | 13 | 37 | 65 | 83 | 97
3 | C/C(=C\n1c2c(c3cc(C)ccc31)CCN(C)C2)c1ccc(Cl)cc1 [Compound 97, 9-(2-(4-chlorophenyl)prop-1-enyl)-2,6-dimethyl-2,3,4,9-tetrahydro-1H-pyrido[3,4-b]indole] | 89 |  | 91 |  | 96 |  | 97 |  |  |  |  |  | 
4 | C/C(=C\n1c2c(c3cc(Cl)ccc31)CCN(C)C2)c1ccc(Cl)cc1 [Compound 98, 6-chloro-9-(2-(4-chlorophenyl)prop-1-enyl)-2-methyl-2,3,4,9-tetrahydro-1H-pyrido[3,4-b]indole] | 94 |  | 74 |  | 87 |  | 98 |  |  |  |  |  | 
5 | C/C(=C\n1c2c(c3cc(Cl)ccc31)CCN(C)C2C)c1ccc(Cl)cc1 (stereo not shown) [Compound 99, 6-chloro-9-(2-(4-chlorophenyl)prop-1-enyl)-1,2-dimethyl-2,3,4,9-tetrahydro-1H-pyrido[3,4-b]indole] | 62 |  | 59 |  | 77 |  | 86 |  |  |  |  |  | 
6 | CCC1c2c(c3cc(Cl)ccc3n2/C=C(\C)c2ccc(Cl)cc2)CCN1C (stereo not shown) [Compound 100, 6-chloro-9-(2-(4-chlorophenyl)prop-1-enyl)-1-ethyl-2-methyl-2,3,4,9-tetrahydro-1H-pyrido[3,4-b]indole] | 39 |  | 56 |  | 53 |  | 87 |  |  |  |  |  | 
7 | CC1c2c(c3cc(Cl)ccc3n2C#Cc2ccc(F)cc2)CCN1C (stereo not shown) [Compound 128] | 53 |  | 81 |  | 94 |  | 95 |  |  |  |  |  | 
8 | CCC1c2c(c3cc(Cl)ccc3n2C#Cc2ccc(F)cc2)CCN1C (stereo not shown) [Compound 129] | 26 |  | 75 |  | 81 |  | 85 |  |  |  |  |  | 
9 | CC1c2c(c3cc(Cl)ccc3n2C#Cc2ccc(Cl)cc2)CCN1C (stereo not shown) [Compound 132, 6-chloro-9-((4-chlorophenyl)ethynyl)-1,2-dimethyl-2,3,4,9-tetrahydro-1H-pyrido[3,4-b]indole] | 57 |  | 13 |  | 84 |  | 80 |  |  |  |  |  | 
10 | CCC1c2c(c3cc(C)ccc3n2C(=O)Cc2ccc(F)cc2)CCN1C (stereo not shown) [Compound 159] | 20 |  | 71 |  | 78 |  | 89 |  |  |  |  |  | 
11 | CCC1c2c(c3cc(C)ccc3n2/C=C(\C)c2ccc(Cl)cc2)CCN1C (stereo not shown) [Compound 160, 9-(2-(4-chlorophenyl)prop-1-enyl)-1-ethyl-2,6-dimethyl-2,3,4,9-tetrahydro-1H-pyrido[3,4-b]indole] | 67 |  | 51 |  | 75 |  | 95 |  |  |  |  |  | 
12 | C/C(=C\n1c2c(c3cc(C)ccc31)CCN(C)C2C)c1ccc(Cl)cc1 (stereo not shown) [Compound 161, 9-(2-(4-chlorophenyl)prop-1-enyl)-1,2,6-trimethyl-2,3,4,9-tetrahydro-1H-pyrido[3,4-b]indole] | 82 |  | 52 |  | 92 |  | 96 |  |  |  |  |  | 
13 | CCC1c2c(c3cc(C)ccc3n2C#Cc2ccc(Cl)cc2)CCN1C (stereo not shown) [Compound 162, 9-((4-chlorophenyl)ethynyl)-1-ethyl-2,6-dimethyl-2,3,4,9-tetrahydro-1H-pyrido[3,4-b]indole] | 33 |  | 76 |  | 85 |  | 98 |  |  |  |  |  | 
14 | Cc1ccc2c(c1)c1c(n2C(=O)Cc2ccc(Cl)cc2)C(c2ccccc2)N(C)CC1 (stereo not shown) [Compound 163] | 27 |  | 96 |  | 37 |  | 98 |  |  |  |  |  | 
15 | C/C(=C\n1c2c(c3cc(C)ccc31)CCN(C)C2c1ccccc1)c1ccc(Cl)cc1 (stereo not shown) [Compound 164, 9-(2-(4-chlorophenyl)prop-1-enyl)-2,6-dimethyl-1-phenyl-2,3,4,9-tetrahydro-1H-pyrido[3,4-b]indole] | 25 |  | 58 |  | 15 |  | 95 |  |  |  |  |  | 
16 | C/C(=C/n1c2c(c3cc(C)ccc31)CCN(C)C2C)c1ccccc1F (stereo not shown) [Compound 165] | 22 |  | 86 |  | 91 |  | 85 |  |  |  |  |  | 
17 | C/C(=C\n1c2c(c3cc(C)ccc31)CCN(C)C2C)c1ccccc1F (stereo not shown) [Compound 166] | 90 | 90 | 95 | 95 | 106 | 106 | 102 |  | 15 | 46 | 74 | 81 | 102
18 | C/C(=C/n1c2c(c3cc(Cl)ccc31)CCN(C)C2C)c1ccccc1F (stereo not shown) [Compound 167] | 51 |  | 92 |  | 94 |  | 88 |  |  |  |  |  | 
